Laboratory results: the PolyMetriX glass transition set

Row | SMILES | glass transition temperature [°C]
1 | *CCc1ccc(NC(=O)c2cccc(C(=O)Nc3ccc(CCOC(=O)c4cccc(C(=O)O*)c4)cc3)c2)cc1 (repeat unit) | 142.00
2 | *c1ccc(-c2ccc(-c3ccc(-n4c(=O)c5c(C(F)(F)F)c6c(=O)n(*)c(=O)c6c(C(F)(F)F)c5c4=O)cc3)cc2)cc1 (repeat unit) | 364.00
3 | *OP(=O)(Oc1ccc([N+](=O)[O-])cc1)Oc1ccc(S(=O)(=O)c2ccc(*)cc2)cc1 (repeat unit) | 114.00
4 | *Oc1cc(CC)cc(OC(=O)c2cccc(C(*)=O)c2)c1 (repeat unit) | 138.00
5 | *CCC/C=C(/*)c1ccccc1 (repeat unit) | 0.00
6 | *c1cccc(N2C(=O)c3cccc(Oc4ccc(C(=O)c5ccc(Oc6cccc7c6C(=O)N(*)C7=O)cc5)cc4)c3C2=O)c1 (repeat unit) | 248.00
7 | *CCN(CCOC(=O)c1cccc(C(=O)O*)c1)c1ccccc1 (repeat unit) | 60.00
8 | *C(=O)Nc1ccc(Oc2ccc(C3(c4ccc(Oc5ccc(NC(=O)c6ccc7c(c6)C(=O)N(c6ccc(Oc8ccc(Oc9ccc(N%10C(=O)c%11ccc(*)cc%11C%10=O)cc9)cc8)cc6)C7=O)cc5)cc4)NC(=O)c4ccccc43)cc2)cc1 (repeat unit) | 284.00
9 | *Oc1ccc(S(=O)(=O)c2ccc(Oc3ccc(C4(c5ccc(*)c(C)c5)CCCCC4)cc3C)cc2)cc1 (repeat unit) | 197.00
10 | *Oc1ccc(/N=N/c2ccc(Cc3ccc(/N=N/c4ccc(OC(=O)c5ccc(C(*)=O)cc5)cc4)cc3[N+](=O)[O-])c([N+](=O)[O-])c2)cc1 (repeat unit) | 198.00
11 | *Nc1ccc(NC(=O)c2ccc(NC(=O)CCCCCCCCCCCCC(=O)Nc3ccc(C(*)=O)cc3)cc2)cc1C(=O)OCCCCCCCCCCCCCCCC (repeat unit) | 250.00
12 | *CCSSSS* (repeat unit) | -24.00
13 | *C1CC(*)(C#N)C1 (repeat unit) | 220.00
14 | *CC(*)(C)C(=O)OCCOCCO (repeat unit) | 20.00
15 | *CCCCCCCCCNC(=O)c1ccc(C(=O)N*)cc1 (repeat unit) | 115.00
16 | *CCCCCCCCCCOc1ccc(/C=N/c2ccc(-c3ccc(/N=C/c4ccc(O*)cc4O)c(OC)c3)cc2OC)c(O)c1 (repeat unit) | 72.00
17 | *CCN(CCOC(=O)Nc1ccc(C)c(NC(=O)O*)c1)c1ccc(/N=N/c2ccc([N+](=O)[O-])cc2)cc1 (repeat unit) | 144.00
18 | *Oc1ccc(C2(c3ccc(OC(=O)CCCC(*)=O)cc3)c3cc(N(C)C)ccc3-c3ccc([N+](=O)[O-])cc32)cc1 (repeat unit) | 181.00
19 | *Nc1cc(NC(=O)c2ccc(C(*)=O)cc2)cc(C(=O)OC(c2ccccc2)c2ccccc2)c1 (repeat unit) | 217.00
20 | *c1ccc2c(c1)C(=O)N(c1cccc(C(=O)Nc3ccc(Oc4ccc(NC(=O)c5cccc(N6C(=O)c7ccc(C(*)(C(F)(F)F)C(F)(F)F)cc7C6=O)c5)cc4)cc3)c1)C2=O (repeat unit) | 298.00
21 | *CCCN1C(=O)c2ccc(C(c3ccc4c(c3)C(=O)N(*)C4=O)(C(F)(F)F)C(F)(F)F)cc2C1=O (repeat unit) | 190.00
22 | *CC(*)(C)C(=O)OCCCCCCCCCCCOc1ccc(C(=O)Oc2ccc(C#N)cc2)cc1 (repeat unit) | 10.00
23 | *c1ccc(Oc2ccccc2Oc2ccc(N3C(=O)c4ccc(Oc5cc6ccccc6cc5Oc5ccc6c(c5)C(=O)N(*)C6=O)cc4C3=O)cc2)cc1 (repeat unit) | 204.00
24 | *CC(*)(Cl)C(=O)OCCOc1ccc(C(=O)Oc2ccc(OCCCC)cc2)cc1 (repeat unit) | 153.00
25 | *O[Si](*)(C)CCCC (repeat unit) | -115.00
